# Patent publication US20170052170A1, “NOVEL CELL LINES AND METHODS” (priority 2009, published 2017)
# What was measured:
# [1] = biological target: T1, human odorant receptor OR1D2 (Homo sapiens, UniProt P34982); assay: calcium flux assay in cell line expressing human odorant receptor OR1D2; assay type: cell-based; details: final concentration 0.3 mM
# T1 construct: expressed in transfected cells; host or cells: 293T (HEK293T)
# T1 sequence (P34982 1-312): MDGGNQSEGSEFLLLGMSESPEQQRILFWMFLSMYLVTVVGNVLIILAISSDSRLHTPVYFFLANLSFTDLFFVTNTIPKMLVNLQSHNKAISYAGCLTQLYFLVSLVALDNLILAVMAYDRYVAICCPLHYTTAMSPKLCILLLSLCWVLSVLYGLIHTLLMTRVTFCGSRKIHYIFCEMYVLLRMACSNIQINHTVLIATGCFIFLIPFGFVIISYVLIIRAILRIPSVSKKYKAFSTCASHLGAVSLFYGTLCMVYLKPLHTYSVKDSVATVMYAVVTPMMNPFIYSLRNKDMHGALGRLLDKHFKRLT
# Experimental: (§1) FIG. 29B depicts representative traces of the functional cell-based response of a cell line described herein expressing human odorant receptor OR1D2 to Bourgeonal (to a final concentration of 0.3 mM) compared to DMSO vehicle background signal as control. Test (black) and control (gray) traces are overlaid. […] The cell-based assay was designed to report calcium flux using a fluorescent calcium signaling dye. Fluorescent assay response is plotted along the Y-axis and time is indicated along the X-axis. Arrows indicate the timepoint at which Bourgeonal or DMSO was added.
# [2] = biological target: T1, human odorant receptor OR1D2; assay: Calcium mobilization (Fluo-4) assay, HEK293T cells expressing OR1D2 and human Gα15; assay type: cell-based; details: final concentration 0.3 mM, vs DMSO vehicle, FIG. 29B
# Experimental: (§2) Populations of cells were tested using functional criteria. Calcium mobilization dye Fluo-4 (Invitrogen) was used according to manufacturer's instructions. HEK293T cell lines stably expressing h-OR were maintained under standard cell culture conditions in DMEM medium supplemented with 10% fetal bovine serum and glutamine. On the day before assay, the cells were harvested from stock plates and plated into black clear-bottom 384 well assay plates. The assay plates were maintained in a 37° C. cell culture incubator under 5% CO2 for 22-48 hours. […] The assay plates were then loaded on a fluorescent plate reader (Hamamatsu FDSS) and agonist (4.5 mM Helional for OR3A1 and 0.3 mM Bourgeonal for OR1D2-FIGS. 29A, 29B) dissolved in the above buffer (130 mM NaCl, 5 mM KCl, 2 mM CaCl2, 1.2 mM MgCl2, 10 mM HEPES, 10 mM glucose, pH 7.0) was added. Cells were tested at multiple different densities in 384-well plates and responses were analyzed. […]
# (§3) In order to identify and measure the ligand-induced responsiveness of odorant receptor-expressing HEK293T cells, receptor activation are monitored by measuring receptor-triggered alterations in intracellular calcium levels. […] Software (Hamamatsu FDSS) analysis of images reports the change in relative fluorescence for each well in the cell plate.
# [3] = biological target: T2, human odorant receptor OR3A1 (Homo sapiens, UniProt P47881, R125Q); assay: calcium flux assay in cell line expressing human odorant receptor OR3A1; assay type: cell-based; details: final concentration 4.5 mM
# T2 construct: expressed in transfected cells; host or cells: 293T (HEK293T)
# T2 sequence (P47881 1-315 R125Q): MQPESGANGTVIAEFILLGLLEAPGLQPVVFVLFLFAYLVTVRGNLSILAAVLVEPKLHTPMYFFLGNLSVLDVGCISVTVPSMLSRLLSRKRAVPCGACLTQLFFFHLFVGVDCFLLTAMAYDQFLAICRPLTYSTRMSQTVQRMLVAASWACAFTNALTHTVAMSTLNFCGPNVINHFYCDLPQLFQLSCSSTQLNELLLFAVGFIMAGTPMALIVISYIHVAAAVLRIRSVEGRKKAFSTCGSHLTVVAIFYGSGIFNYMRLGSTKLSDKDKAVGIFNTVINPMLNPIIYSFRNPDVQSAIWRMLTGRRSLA
# Experimental: as §1, with “29 (A-B) depicts representative traces of the functional cell-based response of cells expressing a human odorant receptor to Helional and to Bourgeonal compared to background. FIG. 29A” for “29B”, “OR3A1” for “OR1D2”, “Helional” for “Bourgeonal”, “4.5” for “0.3”
# [4] = biological target: T2, human odorant receptor OR3A1; assay: Calcium mobilization (Fluo-4) assay, HEK293T cells expressing OR3A1 and human Gα15; assay type: cell-based; details: final concentration 4.5 mM, vs DMSO vehicle, FIG. 29A
# Experimental: as §2, §3
# [5] = biological target: T3, sweet taste receptor (T1R2/T1R3) (Homo sapiens, UniProt Q7RTX0+Q8TE23, C757R/I191V/I486V/R317G); assay: Sweet cell-based calcium flux assay, HEK293T cells expressing T1R2, T1R3 and mouse Gα15; details: FIG. 20; high density, coated plates, low glucose media, serum deprivation
# T3 construct: expressed in transfected cells; host or cells: HEK293T (ATCC CRL-11268)
# T3 sequence (Q8TE23 20-839 I191V/R317G/I486V): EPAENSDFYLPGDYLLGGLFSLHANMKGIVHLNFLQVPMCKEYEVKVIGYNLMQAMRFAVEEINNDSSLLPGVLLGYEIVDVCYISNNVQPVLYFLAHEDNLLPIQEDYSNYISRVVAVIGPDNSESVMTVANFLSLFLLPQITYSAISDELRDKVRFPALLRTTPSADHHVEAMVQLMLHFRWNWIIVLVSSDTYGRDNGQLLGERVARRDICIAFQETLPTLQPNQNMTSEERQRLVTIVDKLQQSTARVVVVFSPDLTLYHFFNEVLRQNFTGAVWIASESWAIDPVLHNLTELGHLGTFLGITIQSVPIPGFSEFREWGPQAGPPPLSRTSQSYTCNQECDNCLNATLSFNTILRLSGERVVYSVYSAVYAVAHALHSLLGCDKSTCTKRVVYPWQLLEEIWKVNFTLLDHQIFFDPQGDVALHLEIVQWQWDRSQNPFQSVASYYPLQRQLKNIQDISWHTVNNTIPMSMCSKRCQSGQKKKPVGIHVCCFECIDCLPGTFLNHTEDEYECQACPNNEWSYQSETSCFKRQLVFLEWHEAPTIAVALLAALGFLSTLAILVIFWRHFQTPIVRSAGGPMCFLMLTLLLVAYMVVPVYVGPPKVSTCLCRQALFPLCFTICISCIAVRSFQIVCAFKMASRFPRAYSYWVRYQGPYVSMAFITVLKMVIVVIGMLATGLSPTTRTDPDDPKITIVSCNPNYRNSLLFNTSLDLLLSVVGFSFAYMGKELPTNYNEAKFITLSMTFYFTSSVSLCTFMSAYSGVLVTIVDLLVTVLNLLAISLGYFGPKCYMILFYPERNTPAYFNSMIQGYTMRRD
# T3 sequence (Q7RTX0 21-852 C757R): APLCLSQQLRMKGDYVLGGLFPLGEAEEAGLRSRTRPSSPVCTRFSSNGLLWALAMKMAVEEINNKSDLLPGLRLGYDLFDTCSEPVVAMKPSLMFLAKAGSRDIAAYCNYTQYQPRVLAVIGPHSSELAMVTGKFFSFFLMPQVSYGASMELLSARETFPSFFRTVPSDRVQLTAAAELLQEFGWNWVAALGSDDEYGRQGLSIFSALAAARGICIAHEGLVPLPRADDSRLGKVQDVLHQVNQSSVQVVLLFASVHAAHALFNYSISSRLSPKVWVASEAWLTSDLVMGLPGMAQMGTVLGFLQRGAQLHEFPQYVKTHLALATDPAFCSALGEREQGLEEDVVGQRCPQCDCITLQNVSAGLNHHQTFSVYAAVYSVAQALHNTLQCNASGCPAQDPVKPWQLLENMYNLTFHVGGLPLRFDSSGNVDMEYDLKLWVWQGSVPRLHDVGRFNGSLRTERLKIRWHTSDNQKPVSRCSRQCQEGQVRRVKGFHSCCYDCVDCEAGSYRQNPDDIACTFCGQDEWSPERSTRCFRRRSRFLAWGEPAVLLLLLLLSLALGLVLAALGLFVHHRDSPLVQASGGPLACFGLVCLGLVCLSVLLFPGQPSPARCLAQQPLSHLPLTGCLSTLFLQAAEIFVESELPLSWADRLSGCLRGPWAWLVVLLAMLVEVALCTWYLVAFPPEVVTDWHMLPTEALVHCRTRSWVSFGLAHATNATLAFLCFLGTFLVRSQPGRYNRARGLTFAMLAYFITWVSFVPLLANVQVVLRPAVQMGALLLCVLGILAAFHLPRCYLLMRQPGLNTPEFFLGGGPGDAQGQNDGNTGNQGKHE
# From the text: Plates are then loaded on a high throughput plate reader (Hamamatsu FDSS). […] Calcium flux is detected for 90 seconds.
# [6] = biological target: T4, umami taste receptor (T1R1 and T1R3 subunits, Gα15) (Homo sapiens, UniProt Q7RTX0+Q7RTX1, C757R); assay: umami taste receptor-expressing cell-based assay; details: FIGS. 9-12
# T4 construct: expressed in transfected cells; host or cells: HEK293T (ATCC CRL-11268)
# T4 sequence (Q7RTX1 21-841): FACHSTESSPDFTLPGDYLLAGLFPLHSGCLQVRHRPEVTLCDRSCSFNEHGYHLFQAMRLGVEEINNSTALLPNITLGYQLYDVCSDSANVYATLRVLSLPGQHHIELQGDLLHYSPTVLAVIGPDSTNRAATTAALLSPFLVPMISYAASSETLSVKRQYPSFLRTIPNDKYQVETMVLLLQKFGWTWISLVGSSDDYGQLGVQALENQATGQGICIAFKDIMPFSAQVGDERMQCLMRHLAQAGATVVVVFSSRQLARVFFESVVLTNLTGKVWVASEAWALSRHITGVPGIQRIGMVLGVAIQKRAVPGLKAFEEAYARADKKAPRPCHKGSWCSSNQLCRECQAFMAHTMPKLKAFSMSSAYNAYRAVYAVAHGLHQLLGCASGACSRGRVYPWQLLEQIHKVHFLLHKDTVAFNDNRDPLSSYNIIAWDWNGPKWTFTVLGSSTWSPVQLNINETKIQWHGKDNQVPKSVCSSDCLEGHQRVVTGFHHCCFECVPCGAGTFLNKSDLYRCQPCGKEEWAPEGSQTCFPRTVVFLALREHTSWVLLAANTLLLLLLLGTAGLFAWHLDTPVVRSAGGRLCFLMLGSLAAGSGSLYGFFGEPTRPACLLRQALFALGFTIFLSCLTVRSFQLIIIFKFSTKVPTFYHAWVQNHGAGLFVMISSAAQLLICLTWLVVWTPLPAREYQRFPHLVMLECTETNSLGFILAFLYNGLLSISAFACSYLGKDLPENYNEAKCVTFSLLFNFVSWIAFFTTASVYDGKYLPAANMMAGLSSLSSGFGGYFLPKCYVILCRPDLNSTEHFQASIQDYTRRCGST
# T4 sequence (Q7RTX0 21-852 C757R): T3 sequence (Q7RTX0 21-852 C757R)
# From the text: To identify a taste receptor modulator (e.g., umami taste receptor modulator or sweet taste receptor modulator), one exposes a cell or cell line of the invention to a test compound under conditions in which the taste receptor (e.g., umami taste receptor or sweet taste receptor) would be expected to be functional and then detects a statistically significant change (e.g., p<0.05) in taste receptor activity (e.g., umami taste receptor activity or sweet taste receptor activity) compared to a suitable control, e.g., cells that are not exposed to the test compound. Positive and/or negative controls using known agonists or antagonists and/or cells expressing different combinations of taste receptor subunits (e.g., umami taste receptor subunits or sweet taste receptor subunits) (and optionally a G protein) may also be used. In some embodiments, the taste receptor activity (e.g., umami taste receptor activity or sweet taste receptor activity) to be detected and/or measured is calcium release from the endoplasmic reticulum as a result of the down stream signaling events following taste receptor activation (e.g., umami taste receptor activation or sweet taste receptor activation). One of ordinary skill in the art would understand that various assay parameters may be optimized, e.g., signal to noise ratio.
smiles,measurement,setting,value
CC(C)(C)c1ccc(CCC=O)cc1 [Bourgeonal],functional cell-based (calcium flux) response compared to DMSO vehicle background,[1],response to Bourgeonal over background
same,functional cell-based calcium flux response,[2],response to Bourgeonal over background
CC(C=O)Cc1ccc2c(c1)OCO2 (stereo not drawn) [Helional],functional cell-based (calcium flux) response compared to DMSO vehicle background,[3],response to Helional over background
same,functional cell-based calcium flux response,[4],response to Helional over background
"N[C@@H](CCC(=O)O)C(=O)[O-].[Na+] [MSG, monosodium glutamate]","response of cells grown in the ""Final"" growth conditions",[5],not
same,response of umami taste receptor cells and cell lines to known classes of umami compounds,[6],respond
